In ChEMBL document CHEMBL5032525, “In vitro, ex vivo and in vivo short-term screening of DHEA nitrate derivatives activity over Trypanosoma cruzi Ninoa and TH strains from Oaxaca State, México” (Bioorg Med Chem, 2021):

Key:
Trypanosoma cruzi [1] = experiment: microbe, parasite or virus in culture; format: functional, organism-based; details: ITRI/MX/2018/TH, 48 h
Description: Trypanocidal activity against Trypanosoma cruzi ITRI/MX/2018/TH assessed as inhibition of parasite growth measured after 48 hrs by MTT assay

in vitro [2] = details: mouse
Description: Selectivity index, ratio of CC50 for mouse J774.2 cells to IC50 for Trypanosoma cruzi MHOM/MX/1994/Ninoa

Trypanosoma cruzi [3] = experiment: microbe, parasite or virus in culture; format: functional, organism-based; details: MHOM/MX/1994/Ninoa, 24 h
Description: Antitrypanosomal activity against Trypanosoma cruzi MHOM/MX/1994/Ninoa infected in animal assessed as reduction in viable parasite in blood measured after 24 hrs by neubauer chamber assay

[4] = Cytotoxicity against mouse J774.2 cells assessed as reduction in cell viability measured after 48 hrs by resazurin dye based assay
Trypanosoma cruzi [5] = experiment: microbe, parasite or virus in culture; format: functional, organism-based; details: MHOM/MX/1994/Ninoa, 48 h
Description: Trypanocidal activity against Trypanosoma cruzi MHOM/MX/1994/Ninoa assessed as inhibition of parasite growth measured after 48 hrs by MTT assay

in vitro [6] = details: mouse; remark: listed apart in the source
Description: Selectivity index, ratio of CC50 for mouse J774.2 cells to IC50 for Trypanosoma cruzi ITRI/MX/2018/TH

Row | Structure (SMILES) | IC50 (Trypanosoma cruzi [1]) [µM] | selectivity ratio (in vitro [2]; J774.2 cells) | IC50 (Trypanosoma cruzi [3]) [µM] | CC50 at 48 h ([4]; J774.2 cells) [µM] | IC50 (Trypanosoma cruzi [5]) [µM] | selectivity ratio (in vitro [6]; J774.2 cells) | selectivity ratio (in vitro [2]) | CC50 at 48 h ([4]; j774.2) [µM] | selectivity ratio (in vitro [6])
1 | C#C[C@]1(O)CC[C@H]2[C@@H]3CC=C4C[C@@H](O[N+](=O)[O-])CC[C@]4(CO[N+](=O)[O-])[C@H]3CC[C@@]21C | 321 | 14.2 | > 300 | 39.8 | 2.8 | 0.13 |  |  | 
2 | C[C@]12CC[C@H](O[N+](=O)[O-])CC1=CC[C@@H]1[C@@H]2CC[C@]2(C)C(=O)CC[C@@H]12 | 0.2 | 0.01 | > 300 | 0.2 | 33.2 | 1 |  |  | 
3 | C#C[C@]1(O[N+](=O)[O-])CC[C@H]2[C@@H]3CC=C4C[C@@H](O[N+](=O)[O-])CC[C@]4(CO[N+](=O)[O-])[C@H]3CC[C@@]21C | 321 | 11 | > 300 | 22.3 | 2.12 | 0.07 |  |  | 
4 | C[C@]12CC[C@H]3[C@@H](CC=C4C[C@@H](O[N+](=O)[O-])CC[C@@]43CO[N+](=O)[O-])[C@@H]1CCC2=O | 430 | 2.68 | 295 | 130 | 48.3 | 0.3 |  |  | 
5 | C[C@]12CC[C@H]3[C@@H](CC=C4C[C@@H](O[N+](=O)[O-])CC[C@@]43C)[C@@H]1CC[C@@H]2O[N+](=O)[O-] | 77 | 0.44 | > 300 | 151 | 347 | 1.89 |  |  | 
6 | C[C@]12CC[C@H]3[C@@H](CC=C4C[C@@H](O)CC[C@@]43CO)[C@@H]1CCC2=O | 476 | 2.08 | > 300 | 75.4 | 36.2 | 0.15 |  |  | 
7 | C[C@]12CC[C@H]3[C@@H](CC=C4C[C@@H](O)CC[C@@]43C)[C@@H]1CC[C@@H]2O [ANDROSTENEDIOL] | 37.1 |  | > 300 |  | 2.23 |  | 125 | 278 | 7.5
8 | O=C(Cn1ccnc1[N+](=O)[O-])NCc1ccccc1 [BENZNIDAZOLE] | 39.1 |  |  |  |  |  |  |  | 
9 | CC1CS(=O)(=O)CCN1/N=C/c1ccc([N+](=O)[O-])o1 (stereo unspecified) [NIFURTIMOX] | 19.3 |  |  |  | 7.09 |  |  |  | 
10 | C[C@]12CC[C@H](O)CC1=CC[C@@H]1[C@@H]2CC[C@]2(C)C(=O)CC[C@@H]12 [PRASTERONE] | 13.8 | 3.19 | > 300 | 198 | 62 | 14.3 |  |  | 
